The target in test [1] is T1, Small ubiquitin-related modifier 1 (Homo sapiens, UniProt P63165). The experiment in a line: SUMO1 protein interaction blockers, potency – biochemical, fluorescence polarization, uHTS hits, dose response (AID 624382). Type of test: functional. The settings on record: read-out: IC50_Mean.
The target in test [2] is T1, Small ubiquitin-related modifier 1. In words: SUMO1 protein-protein binding blockers, potency – biochemical, FRET, dose response (AID 624383). The class given is functional. The conditions noted are these: read-out: IC50_Mean.
The target in another test is Estrogen receptor beta (Homo sapiens, UniProt Q92731). The experiment in a line: blockers of SRC-3 recruitment to ERβ – biochemical, ELISA, streptavidin-HRP readout, orthogonal assay, confirmation (AID 1060). (In an ELISA, binding on a coated surface is turned into a signal by an enzyme label.)
In the next test the target is T2, Estrogen receptor (Homo sapiens, UniProt P03372).
T2 sequence (P03372 whole entry): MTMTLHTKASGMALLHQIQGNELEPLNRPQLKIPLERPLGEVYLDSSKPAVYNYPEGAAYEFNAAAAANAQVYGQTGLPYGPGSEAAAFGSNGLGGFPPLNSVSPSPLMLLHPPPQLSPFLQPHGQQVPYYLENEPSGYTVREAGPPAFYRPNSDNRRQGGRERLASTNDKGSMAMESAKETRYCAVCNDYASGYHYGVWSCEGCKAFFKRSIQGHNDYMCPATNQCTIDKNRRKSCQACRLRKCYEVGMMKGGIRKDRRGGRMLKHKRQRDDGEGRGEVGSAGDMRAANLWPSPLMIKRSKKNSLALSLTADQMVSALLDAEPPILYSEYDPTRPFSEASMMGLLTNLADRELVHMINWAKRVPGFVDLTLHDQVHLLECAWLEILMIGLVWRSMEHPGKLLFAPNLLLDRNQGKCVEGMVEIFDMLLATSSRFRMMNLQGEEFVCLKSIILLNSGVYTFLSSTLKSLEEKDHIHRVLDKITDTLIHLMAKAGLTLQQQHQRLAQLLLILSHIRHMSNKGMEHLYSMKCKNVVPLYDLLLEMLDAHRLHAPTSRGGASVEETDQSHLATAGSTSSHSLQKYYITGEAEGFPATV

A short description of test [3]: Luminescence Cell-Based Dose Retest to Confirm Inhibitors of Cancer Stem Cells. [Related pubchem assays (depositor defined):AID2717, AID2721]. Type of test: functional, Homo sapiens. The conditions noted are these: Homo sapiens.
The next test deals with INS1. The experiment in a line: INS-1E survival protection against cytokine death – cell-based, luminescence, retest, dose response (AID 449756).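 Also: cell death triggered by IL-1 beta plus TNF-alpha plus IFN-gamma mixture; protective hits raise ATP signal compared with cytokine alone wells.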 The class given is functional. The conditions noted are these: Rattus norvegicus.
The target in a further test is Nonstructural protein 1 (Influenza A virus, UniProt Q194T2). Type of test: functional, Influenza A virus (A/California/07/2009(H1N1)).
For the next test, the target named is T3, Aminopeptidase N (Plasmodium falciparum FcB1/Columbia, UniProt O96935).
T3 sequence (O96935 whole entry): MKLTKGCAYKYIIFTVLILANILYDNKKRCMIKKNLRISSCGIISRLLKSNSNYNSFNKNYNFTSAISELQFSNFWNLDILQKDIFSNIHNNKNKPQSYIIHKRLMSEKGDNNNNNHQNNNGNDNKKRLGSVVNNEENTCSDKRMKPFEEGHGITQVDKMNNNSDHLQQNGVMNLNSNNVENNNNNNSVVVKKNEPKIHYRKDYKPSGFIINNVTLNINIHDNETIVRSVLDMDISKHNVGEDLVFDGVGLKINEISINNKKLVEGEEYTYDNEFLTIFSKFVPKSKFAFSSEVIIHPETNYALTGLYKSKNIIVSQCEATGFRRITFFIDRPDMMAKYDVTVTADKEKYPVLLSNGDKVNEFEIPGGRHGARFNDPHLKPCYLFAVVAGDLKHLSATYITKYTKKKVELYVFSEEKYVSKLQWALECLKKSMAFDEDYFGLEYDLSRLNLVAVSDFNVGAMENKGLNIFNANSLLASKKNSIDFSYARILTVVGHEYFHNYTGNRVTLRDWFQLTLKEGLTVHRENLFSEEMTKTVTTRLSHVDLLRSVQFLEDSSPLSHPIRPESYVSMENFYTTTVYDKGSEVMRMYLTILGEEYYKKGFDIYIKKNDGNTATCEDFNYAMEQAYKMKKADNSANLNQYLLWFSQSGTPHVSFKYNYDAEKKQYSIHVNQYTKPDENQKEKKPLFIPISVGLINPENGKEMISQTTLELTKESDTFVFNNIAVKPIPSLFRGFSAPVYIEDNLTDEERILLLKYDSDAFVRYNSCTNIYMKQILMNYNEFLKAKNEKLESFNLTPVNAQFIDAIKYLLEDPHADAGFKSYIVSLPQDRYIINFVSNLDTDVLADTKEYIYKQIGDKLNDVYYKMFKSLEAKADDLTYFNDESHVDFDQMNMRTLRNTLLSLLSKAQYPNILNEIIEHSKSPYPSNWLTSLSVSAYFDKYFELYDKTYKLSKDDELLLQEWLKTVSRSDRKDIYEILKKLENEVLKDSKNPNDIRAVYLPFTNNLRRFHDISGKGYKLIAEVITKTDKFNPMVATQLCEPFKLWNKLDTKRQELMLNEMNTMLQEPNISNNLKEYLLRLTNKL
The experiment in a line: malaria alanyl aminopeptidase activity blockers – biochemical, fluorogenic H-Leu-NHMec substrate, 1536-well (AID 1445). On the set-up: species or system Plasmodium falciparum 3D7, 3D7.

The nature of test [4]: HEK-293T viability loss after treatment – luminescence, T-cell screen hits, cytotoxicity control for TCR NF-kB inhibitor project, dose response (AID 489026).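 Also: cells exposed to compound about 14 hours before the viability readout.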 Type of test: functional, cell-based.
Test [5] concerns the target T4, Carboxy-terminal domain RNA polymerase II polypeptide A small phosphatase 1 (Homo sapiens, UniProt Q9GZU7).
T4 sequence (Q9GZU7 whole entry): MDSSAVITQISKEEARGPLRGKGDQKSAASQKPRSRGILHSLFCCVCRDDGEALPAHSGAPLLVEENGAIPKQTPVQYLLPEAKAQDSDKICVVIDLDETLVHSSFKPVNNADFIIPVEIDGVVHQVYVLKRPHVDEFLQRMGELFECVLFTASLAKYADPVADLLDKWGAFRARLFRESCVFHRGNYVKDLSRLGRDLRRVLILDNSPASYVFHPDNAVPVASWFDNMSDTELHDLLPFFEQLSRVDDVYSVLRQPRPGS
In words: CTDSP1 inhibitors, concentration-response, biochemical, absorbance readout, ultra-high-throughput screen actives (AID 540297). Type of test: functional.

The nature of test [6]: toxicity to human hepatoma HepG2 cells – cell-based, cherry-picked samples, cytotoxicity control, dose response (AID 1159577). The class given is functional.
The nature of test [7]: P. falciparum Dd2 growth inhibitors, dose response, SYBR Green, cherry-picked samples (AID 1159567). Type of test: functional, cell-based.
The nature of test [8]: blockade of melanocortin 4 receptor signaling – cell-based, plate reader, cherry pick, counter-screen for LGR2 antagonist project, dose response (AID 743444).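 Also: transfected HEK 293 cells stimulated with alpha-MSH peptide; potency of inhibitors of the alpha-MSH evoked signal.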 Type of test: functional. On the technique in general: The purpose of a counterscreen is to sort out artefacts and off-target activity.
Test [9] can be described thus: viability loss in HEK293 cells – cell-based, plate reader, cherry-picked samples, cytotoxicity control, dose response (AID 743446). The class given is functional.
The target of another test is Mu-type opioid receptor (Homo sapiens, UniProt P35372). The class given is functional, cell-based.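 Also: U2OS cells with beta-arrestin recruitment to OPRM1 by beta-gal complementation.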
Test [10] has as its target 5-hydroxytryptamine receptor 2A (Mus musculus, UniProt P35363). Type of test: functional, cell-based.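 Also: CHO-K1 cells with tagged receptor and beta-arrestin; agonist potency measured as compound-induced activation of the receptor.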
For test [11], the target named is T5, SUMO-activating enzyme (Homo sapiens, UniProt Q9UBT2). In words: blockers of SAE1/SAE2–UBC9 SUMO transfer – biochemical, HTRF, uHTS, primary screen (AID 2006). The class given is protein-complex assay. On the technique in general: TR-FRET usually uses a lanthanide donor and a delayed reading to cut background.
The target of test [12] is T5, SUMO-activating enzyme. In words: blockers of UBC9-mediated SUMO conjugation – biochemical, AlphaScreen, SUMOylation inhibitor project, confirmation (AID 2018). The class given is functional.
The target of test [13] is Voltage-dependent T-type calcium channel subunit alpha-1H (Homo sapiens, UniProt O95180). Type of test: functional.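 Also: channel activity triggered by adding a high calcium stimulation buffer.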

Active and inactive are the calls of the source. Some results are limits rather than exact numbers.

T1 sequence (P63165 whole entry): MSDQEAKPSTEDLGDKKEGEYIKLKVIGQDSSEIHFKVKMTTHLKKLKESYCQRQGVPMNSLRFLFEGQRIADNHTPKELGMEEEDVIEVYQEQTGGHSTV
T5 sequence (Q9UBE0 whole entry): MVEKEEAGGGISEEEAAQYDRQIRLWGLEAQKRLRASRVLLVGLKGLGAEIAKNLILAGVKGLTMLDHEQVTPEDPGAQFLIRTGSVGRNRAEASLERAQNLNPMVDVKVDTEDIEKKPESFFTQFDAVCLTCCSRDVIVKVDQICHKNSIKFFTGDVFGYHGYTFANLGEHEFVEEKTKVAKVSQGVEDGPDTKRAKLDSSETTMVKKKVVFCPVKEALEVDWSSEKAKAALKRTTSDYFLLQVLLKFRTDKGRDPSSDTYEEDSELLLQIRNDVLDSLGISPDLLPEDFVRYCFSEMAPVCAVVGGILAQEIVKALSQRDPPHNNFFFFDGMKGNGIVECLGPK
T5 sequence (Q9UBT2 whole entry): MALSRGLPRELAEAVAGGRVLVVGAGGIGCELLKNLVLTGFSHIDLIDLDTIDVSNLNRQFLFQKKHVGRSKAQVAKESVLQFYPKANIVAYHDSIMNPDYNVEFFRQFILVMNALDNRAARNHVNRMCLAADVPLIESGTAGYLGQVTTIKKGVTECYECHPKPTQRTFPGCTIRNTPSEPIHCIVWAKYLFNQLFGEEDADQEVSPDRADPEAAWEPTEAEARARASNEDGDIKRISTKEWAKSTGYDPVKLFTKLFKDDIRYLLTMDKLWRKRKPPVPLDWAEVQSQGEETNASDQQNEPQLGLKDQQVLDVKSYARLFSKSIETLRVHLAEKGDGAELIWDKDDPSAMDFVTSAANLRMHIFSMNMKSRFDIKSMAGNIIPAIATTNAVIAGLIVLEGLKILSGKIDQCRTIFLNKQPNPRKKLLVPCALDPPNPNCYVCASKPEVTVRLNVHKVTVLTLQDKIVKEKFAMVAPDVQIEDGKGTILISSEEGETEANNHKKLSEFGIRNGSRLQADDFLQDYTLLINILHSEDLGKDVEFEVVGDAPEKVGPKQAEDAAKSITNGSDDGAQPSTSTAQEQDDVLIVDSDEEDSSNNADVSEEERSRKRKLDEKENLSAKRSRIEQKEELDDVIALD
Chain of Nonstructural protein 1 (Q194T2 whole entry): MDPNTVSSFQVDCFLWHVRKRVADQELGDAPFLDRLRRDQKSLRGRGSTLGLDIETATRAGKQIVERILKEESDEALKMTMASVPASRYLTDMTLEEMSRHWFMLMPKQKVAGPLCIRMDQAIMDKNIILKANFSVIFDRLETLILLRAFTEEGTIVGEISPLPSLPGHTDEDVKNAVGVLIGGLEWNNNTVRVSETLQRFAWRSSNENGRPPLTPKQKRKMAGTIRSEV
Chain of Voltage-dependent T-type calcium channel subunit alpha-1H (O95180 whole entry): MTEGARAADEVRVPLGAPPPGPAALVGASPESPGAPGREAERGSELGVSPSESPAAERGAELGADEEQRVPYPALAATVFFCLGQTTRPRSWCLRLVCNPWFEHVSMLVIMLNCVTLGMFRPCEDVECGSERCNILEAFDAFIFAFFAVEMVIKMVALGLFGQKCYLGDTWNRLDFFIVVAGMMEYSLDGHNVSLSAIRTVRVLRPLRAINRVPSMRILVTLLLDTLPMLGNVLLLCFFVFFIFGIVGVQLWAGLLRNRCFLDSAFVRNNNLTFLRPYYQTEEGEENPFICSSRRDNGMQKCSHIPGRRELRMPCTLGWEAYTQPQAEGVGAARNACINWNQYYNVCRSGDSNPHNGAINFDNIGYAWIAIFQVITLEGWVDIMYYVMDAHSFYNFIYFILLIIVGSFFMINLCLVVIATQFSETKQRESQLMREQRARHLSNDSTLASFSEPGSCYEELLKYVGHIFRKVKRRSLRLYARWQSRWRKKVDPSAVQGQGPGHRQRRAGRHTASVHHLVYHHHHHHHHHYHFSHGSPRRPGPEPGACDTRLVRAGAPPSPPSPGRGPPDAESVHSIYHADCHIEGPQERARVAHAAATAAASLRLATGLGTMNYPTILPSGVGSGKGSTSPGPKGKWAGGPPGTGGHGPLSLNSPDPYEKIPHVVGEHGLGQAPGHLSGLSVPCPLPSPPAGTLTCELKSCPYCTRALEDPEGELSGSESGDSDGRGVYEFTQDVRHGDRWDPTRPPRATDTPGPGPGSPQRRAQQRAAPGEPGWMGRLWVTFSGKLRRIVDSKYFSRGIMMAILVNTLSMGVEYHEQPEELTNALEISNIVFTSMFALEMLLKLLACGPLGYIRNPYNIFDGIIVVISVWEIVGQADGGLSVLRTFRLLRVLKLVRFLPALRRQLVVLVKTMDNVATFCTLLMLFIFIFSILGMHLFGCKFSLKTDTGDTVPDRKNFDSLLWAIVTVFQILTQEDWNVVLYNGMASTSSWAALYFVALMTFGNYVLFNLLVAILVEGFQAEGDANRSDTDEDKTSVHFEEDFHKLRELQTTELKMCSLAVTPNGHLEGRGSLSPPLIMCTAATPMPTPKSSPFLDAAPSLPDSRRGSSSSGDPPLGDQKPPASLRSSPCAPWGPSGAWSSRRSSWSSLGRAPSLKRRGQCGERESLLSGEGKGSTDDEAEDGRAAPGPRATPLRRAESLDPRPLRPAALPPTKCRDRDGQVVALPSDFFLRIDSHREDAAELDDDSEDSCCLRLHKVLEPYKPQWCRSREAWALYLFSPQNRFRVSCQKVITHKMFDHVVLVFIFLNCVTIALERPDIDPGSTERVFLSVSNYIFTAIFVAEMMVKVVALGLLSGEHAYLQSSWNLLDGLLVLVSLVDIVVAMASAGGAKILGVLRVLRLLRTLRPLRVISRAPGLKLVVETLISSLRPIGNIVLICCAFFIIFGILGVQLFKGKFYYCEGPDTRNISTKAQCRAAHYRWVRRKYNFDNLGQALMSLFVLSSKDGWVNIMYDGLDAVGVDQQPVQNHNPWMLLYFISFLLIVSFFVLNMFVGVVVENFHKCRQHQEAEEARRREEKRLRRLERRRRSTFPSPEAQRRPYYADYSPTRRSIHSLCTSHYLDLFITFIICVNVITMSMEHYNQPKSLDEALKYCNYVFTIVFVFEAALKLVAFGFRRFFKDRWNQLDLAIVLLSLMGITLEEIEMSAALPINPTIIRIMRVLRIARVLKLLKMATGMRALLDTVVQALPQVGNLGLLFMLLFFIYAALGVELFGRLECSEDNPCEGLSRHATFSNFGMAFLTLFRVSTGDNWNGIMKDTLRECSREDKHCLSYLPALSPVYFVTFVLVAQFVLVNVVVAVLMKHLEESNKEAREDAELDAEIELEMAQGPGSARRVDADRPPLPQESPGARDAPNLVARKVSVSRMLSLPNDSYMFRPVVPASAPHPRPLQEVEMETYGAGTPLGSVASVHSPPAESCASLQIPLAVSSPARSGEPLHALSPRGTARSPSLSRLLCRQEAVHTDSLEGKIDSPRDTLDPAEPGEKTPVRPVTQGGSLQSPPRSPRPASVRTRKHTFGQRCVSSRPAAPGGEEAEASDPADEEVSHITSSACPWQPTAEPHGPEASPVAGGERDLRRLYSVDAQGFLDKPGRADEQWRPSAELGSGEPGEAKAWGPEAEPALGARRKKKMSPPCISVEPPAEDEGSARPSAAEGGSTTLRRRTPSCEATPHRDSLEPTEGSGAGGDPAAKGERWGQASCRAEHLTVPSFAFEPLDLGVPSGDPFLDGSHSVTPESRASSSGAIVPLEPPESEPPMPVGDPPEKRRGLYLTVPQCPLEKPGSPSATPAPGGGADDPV
Chain of 5-hydroxytryptamine receptor 2A (P35363 whole entry): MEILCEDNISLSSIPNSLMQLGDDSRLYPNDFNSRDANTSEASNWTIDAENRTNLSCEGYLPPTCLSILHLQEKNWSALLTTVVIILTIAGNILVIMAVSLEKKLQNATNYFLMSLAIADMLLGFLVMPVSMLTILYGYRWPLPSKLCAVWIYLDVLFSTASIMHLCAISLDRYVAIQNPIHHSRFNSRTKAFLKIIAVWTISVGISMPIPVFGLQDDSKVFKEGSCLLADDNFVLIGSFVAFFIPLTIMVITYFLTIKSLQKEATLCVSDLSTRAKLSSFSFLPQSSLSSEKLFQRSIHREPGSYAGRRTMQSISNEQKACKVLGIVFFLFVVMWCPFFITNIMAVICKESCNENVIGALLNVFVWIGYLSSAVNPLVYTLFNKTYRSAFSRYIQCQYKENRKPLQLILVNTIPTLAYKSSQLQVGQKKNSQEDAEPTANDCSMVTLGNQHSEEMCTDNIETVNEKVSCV
Chain of Mu-type opioid receptor (P35372 whole entry): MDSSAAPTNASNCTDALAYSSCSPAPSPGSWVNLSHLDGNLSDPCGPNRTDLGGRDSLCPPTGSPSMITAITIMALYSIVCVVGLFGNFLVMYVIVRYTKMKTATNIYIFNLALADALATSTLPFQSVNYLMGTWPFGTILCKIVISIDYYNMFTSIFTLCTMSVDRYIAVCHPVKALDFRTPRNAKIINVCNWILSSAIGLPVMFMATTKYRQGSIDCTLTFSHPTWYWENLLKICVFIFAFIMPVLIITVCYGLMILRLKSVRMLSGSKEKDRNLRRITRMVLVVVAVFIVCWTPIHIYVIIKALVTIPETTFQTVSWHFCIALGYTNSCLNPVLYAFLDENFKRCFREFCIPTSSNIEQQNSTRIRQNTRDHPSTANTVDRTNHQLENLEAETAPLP

As to `O=C(COC(=O)c1ccc(Cl)c(S(=O)(=O)N2CCOCC2)c1)Nc1ccc2[nH]c(O)nc2c1`, the IC50 was > 66.6 µM (inactive) in test [1] and 15.8 µM (active) in [2].
As for `O=C(c1ccc(CS(=O)(=O)c2ccccc2)o1)N1CCC2(CC1)OCCO2`, the IC50 on Estrogen receptor beta is listed as 4.05 µM (not active).
As usually defined, the AC50 is the midpoint of the concentration-response curve, whichever way the signal moves. `Nc1ccccc1N/C=C1\C(=O)NC(=O)N(CCC2=CCCCC2)C1=O`: the IC50 at Estrogen receptor is reported as > 50 µM (not active). Moreover, the AC50 was 81.2 µM (active) in [3] and 28.2 µM (active) in the test on INS1.
Turning to `O=C(N/N=C(\Cc1ncc[nH]1)c1ccccc1)c1ccncc1`, the IC50 at Nonstructural protein 1 was 2.46 µM (active); on Aminopeptidase N, 21.4 µM (active). Further, the AC50 in [3] was 3.42 µM (active); in the test with INS1, 7.38 µM (active).
For `O=C(Nc1ccncc1)C1CCCN(S(=O)(=O)c2cccc3cccnc23)C1` (stereo not drawn), in [4], the IC50 was 67.5 µM (inactive).
Consider `O=C(O)c1cc(-c2ccco2)nn1-c1cccc(Cl)c1`, for which the IC50 in [1] is > 66.6 µM (inactive); in [2], 27.1 µM (inactive); in test [5], 5.39 µM (active).
For the molecule `COc1ccc(C#Cc2ccc([C@H]3[C@@H](CO)N4CCCCN(Cc5ccncc5)C[C@H]34)cc2)cc1`, the AC50 in test [6] is 10.7 µM (active); in test [7], 1.87 µM (active).
As for `CN(c1ccccc1)S(=O)(=O)c1cccc(NC(=O)c2cc(=O)c3ccccc3o2)c1`, the AC50 in test [8] is 38.2 µM (active); in test [9], > 52 µM (inactive).
For orientation: EC50 means the midpoint of the concentration-response curve. In the case of `O=C1C2CCCN2C(=O)N1CCCCN1CCN(c2ccccc2)CC1` (stereo not drawn), the EC50 on Mu-type opioid receptor was 92.4 µM (inactive); in test [10], 2.81 µM (active).
As for `COc1ccc2[nH]c3c(=O)n(CCCC(=O)NC4CCC(C)CC4)c(=S)[nH]c3c2c1` (stereo not drawn), the values for the IC50 at SUMO-activating enzyme [11] and at SUMO-activating enzyme [12] were 22.7 µM (active) and 38.1 µM (active), respectively.
In the case of `FC(F)(F)c1cc(C(F)(F)F)c2ccc(Oc3ccccc3)nc2n1`, the concentration for a half-maximal effect (EC50) in test [13] was 4.65 µM (active).

(Values after ChEMBL document CHEMBL1201862, “PubChem BioAssay data set” (2004).)
